In publication PMC7374938 (Journal of medicinal chemistry, 2017):
Structures can show the parent of a compound that is named as a salt.

What was measured:
[1] = target: T1, human 5-HT2C-INI receptor (Homo sapiens, UniProt P28335); assay: Calcium flux assay; type: cell-based; conditions: for Emax: read-out: 5-HT2C Emax, Table 1, normalized to % 5-HT, mean ± SEM (n = 3), NA = no activity up to 10 μM; for 5-HT2C EC50: Table 1, FLIPR calcium flux, calculated from averaged pEC50
T1 sequence (P28335 33-458): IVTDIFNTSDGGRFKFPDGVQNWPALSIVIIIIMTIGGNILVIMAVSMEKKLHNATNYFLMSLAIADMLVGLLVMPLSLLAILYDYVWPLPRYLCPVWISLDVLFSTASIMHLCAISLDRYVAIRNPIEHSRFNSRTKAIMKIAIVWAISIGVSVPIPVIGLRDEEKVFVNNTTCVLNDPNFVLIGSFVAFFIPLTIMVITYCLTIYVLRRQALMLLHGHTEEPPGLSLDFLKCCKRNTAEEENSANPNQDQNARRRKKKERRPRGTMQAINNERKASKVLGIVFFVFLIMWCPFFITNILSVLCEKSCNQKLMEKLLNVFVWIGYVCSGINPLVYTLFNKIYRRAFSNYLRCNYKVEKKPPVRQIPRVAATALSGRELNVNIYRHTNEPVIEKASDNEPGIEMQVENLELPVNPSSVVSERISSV

5-HT2B [2] = target: T2, 5-HT2B (Homo sapiens, UniProt P41595); assay: Calcium flux assay; type: cell-based
T2 sequence (P41595 whole entry): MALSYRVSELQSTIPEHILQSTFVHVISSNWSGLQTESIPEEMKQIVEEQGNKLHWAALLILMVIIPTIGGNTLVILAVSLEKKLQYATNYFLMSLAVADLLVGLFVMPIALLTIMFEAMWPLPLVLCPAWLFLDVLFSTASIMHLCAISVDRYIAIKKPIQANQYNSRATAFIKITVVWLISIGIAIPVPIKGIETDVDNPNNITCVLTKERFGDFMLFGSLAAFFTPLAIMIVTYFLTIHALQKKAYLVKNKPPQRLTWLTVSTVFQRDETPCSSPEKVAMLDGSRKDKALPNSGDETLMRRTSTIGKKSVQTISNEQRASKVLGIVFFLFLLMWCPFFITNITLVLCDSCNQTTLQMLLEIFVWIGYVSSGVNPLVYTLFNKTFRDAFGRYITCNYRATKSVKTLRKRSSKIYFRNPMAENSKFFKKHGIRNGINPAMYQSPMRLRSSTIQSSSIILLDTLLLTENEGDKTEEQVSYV

[3] = target: T1, human 5-HT2C-INI receptor; assay: Tango β-arrestin-2 recruitment assay; type: cell-based; conditions: for β-arrestin recruitment activity: 5-HT2C
C57BL/6J mice [4] = assay: Phencyclidine; type: in vivo, mouse; conditions: PCP 5 mg/kg, 60 min
C57BL/6J mice [5] = assay: Baseline; type: in vivo, mouse; conditions: 0–15 min, male C57BL/6J mice
C57BL/6J mice [6] = assay: Amphetamine; type: in vivo, mouse; conditions: AMPH 3 mg/kg, 90 min
5-HT2B [7] = target: T2, 5-HT2B; conditions: cited from earlier work
5-HT2C [8] = target: T3, 5-HT2C (Homo sapiens, UniProt P28335); conditions: cited from earlier work
T3 sequence (P28335 33-458): T1 sequence (P28335 33-458)

5-HT2C [9] = target: T3, 5-HT2C; assay: Binding affinity
[10] = cited from earlier work
5-HT2A [11] = target: T4, 5-HT2A (Homo sapiens, UniProt P28223); assay: Calcium flux assay; type: cell-based; conditions: read-out: 5-HT2A Emax
T4 sequence (P28223 whole entry): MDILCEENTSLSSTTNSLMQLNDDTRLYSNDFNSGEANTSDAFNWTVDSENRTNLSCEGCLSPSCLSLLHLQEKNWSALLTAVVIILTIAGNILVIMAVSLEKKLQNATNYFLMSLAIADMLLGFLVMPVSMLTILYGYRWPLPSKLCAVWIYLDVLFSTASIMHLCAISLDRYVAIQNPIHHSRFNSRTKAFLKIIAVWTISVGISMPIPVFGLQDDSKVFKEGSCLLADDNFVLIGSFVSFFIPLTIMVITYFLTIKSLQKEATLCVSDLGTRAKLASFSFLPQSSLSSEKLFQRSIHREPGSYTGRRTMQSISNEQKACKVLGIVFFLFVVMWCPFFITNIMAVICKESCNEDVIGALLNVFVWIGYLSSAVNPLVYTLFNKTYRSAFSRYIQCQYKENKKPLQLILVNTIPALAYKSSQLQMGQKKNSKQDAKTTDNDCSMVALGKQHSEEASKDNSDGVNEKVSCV

CYP2D6 = CYP2D6 (Homo sapiens, UniProt P10635); assay: in vitro; conditions: human liver microsomes, probe dextromethorphan
Chain of CYP2D6 (P10635 whole entry): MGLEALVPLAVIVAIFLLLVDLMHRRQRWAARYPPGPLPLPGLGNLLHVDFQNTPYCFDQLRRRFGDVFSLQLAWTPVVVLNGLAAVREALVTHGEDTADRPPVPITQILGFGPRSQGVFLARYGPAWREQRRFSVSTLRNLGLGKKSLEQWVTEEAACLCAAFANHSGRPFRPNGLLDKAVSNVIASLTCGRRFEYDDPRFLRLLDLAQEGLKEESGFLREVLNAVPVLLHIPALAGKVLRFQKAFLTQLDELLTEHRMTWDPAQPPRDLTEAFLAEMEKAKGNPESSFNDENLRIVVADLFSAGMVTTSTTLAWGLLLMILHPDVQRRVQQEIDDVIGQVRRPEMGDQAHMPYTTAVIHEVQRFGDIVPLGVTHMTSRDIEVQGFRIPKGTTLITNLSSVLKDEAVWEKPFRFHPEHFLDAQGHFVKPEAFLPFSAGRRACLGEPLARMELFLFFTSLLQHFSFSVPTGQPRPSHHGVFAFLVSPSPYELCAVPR

[12] = test system: serotonin receptors, dopamine receptors, monoamine transporters, and other selected CNS targets; assay: Off-target binding panel; conditions: panel of CNS targets
CYP3A4 = CYP3A4 (Homo sapiens, UniProt P08684); assay: in vitro; conditions: human liver microsomes, probe midazolam
Chain of CYP3A4 (P08684 whole entry): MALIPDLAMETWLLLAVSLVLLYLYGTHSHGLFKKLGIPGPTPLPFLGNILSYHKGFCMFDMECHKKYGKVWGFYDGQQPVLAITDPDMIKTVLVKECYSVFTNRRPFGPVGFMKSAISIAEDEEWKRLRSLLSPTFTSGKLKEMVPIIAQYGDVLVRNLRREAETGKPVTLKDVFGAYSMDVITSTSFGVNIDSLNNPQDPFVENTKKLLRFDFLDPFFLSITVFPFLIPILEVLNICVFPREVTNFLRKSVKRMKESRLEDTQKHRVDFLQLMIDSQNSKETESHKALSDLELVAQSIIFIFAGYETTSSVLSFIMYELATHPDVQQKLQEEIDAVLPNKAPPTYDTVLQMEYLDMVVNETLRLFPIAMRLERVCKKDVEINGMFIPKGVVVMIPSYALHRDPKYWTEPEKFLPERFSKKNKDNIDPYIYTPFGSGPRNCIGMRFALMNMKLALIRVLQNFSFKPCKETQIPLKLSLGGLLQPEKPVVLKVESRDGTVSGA

5-HT2A [13] = target: T4, 5-HT2A; conditions: cited from earlier work

SMILES: COc1ccc(F)cc1C1CC1CNCc1ccccc1C#N (racemic) [(±)-24, 2-[[[[2-(5-Fluoro-2-methoxyphenyl)cyclopropyl]methyl]amino]methyl]benzonitrile Hydrochloride]
- Emax [1]: < 35%

SMILES: COc1ccc(F)cc1[C@H]1C[C@@H]1CNCc1cccs1.Cl [(+)-32, (+)-1-[(1S,2S)-2-(5-Fluoro-2-methoxyphenyl)cyclopropyl]-N-(thiophen-2-ylmethyl)methanamine Hydrochloride]
- selectivity for 5-HT2C over 5-HT2B (5-HT2B [2]): full selectivity
- β-arrestin recruitment activity [3]: no β-arrestin recruitment activity

SMILES: COc1ccc(F)cc1C1CC1CNCc1cccc2cc[nH]c12.Cl (racemic) [(±)-38, 1-[2-(5-Fluoro-2-methoxyphenyl)cyclopropyl)-N-[(1H-indol-7-yl)methyl]methanamine Hydrochloride]
- 5-HT2C EC50 [1]: entirely inactive

SMILES: COc1ccc(F)cc1C1CC1CNCC1CC1.Cl (racemic) [(±)-17, 1-Cyclopropyl-N-[[2-(5-fluoro-2-methoxyphenyl)cyclopropyl]methyl]methanamine Hydrochloride]
- EC50 [1]: > 300 nM
- 5-HT2C EC50 [1]: lack of activity

SMILES: COc1ccc(F)cc1C1CC1CNCc1ccccc1C(N)=O (racemic) [(±)-25, 2-[[[[2-(5-Fluoro-2-methoxyphenyl)cyclopropyl]methyl]amino]methyl]benzamide Hydrochloride]
- Emax [1]: < 35%

SMILES: COc1ccccc1CN(C)CC1CC1c1cc(F)ccc1OC.Cl (racemic) [(±)-28, 1-[2-(5-Fluoro-2-methoxyphenyl)cyclopropyl]-N-(2-methoxybenzyl)-N-methylmethanamine Hydrochloride]
- reduction of 5-HT2C potency compared to the parent compound (+)-19 ([1]; racemate vs (+)-19): 15 fold

SMILES: C[C@H]1CNCCc2ccc(Cl)cc21 [lorcaserin, reference compound]
- effect on PCP-induced hyperactivity (C57BL/6J mice [4]; 3 mg/kg IP): no overall reduction in activity that was statistically significant
- baseline locomotion (C57BL/6J mice [5]; 3 mg/kg IP): decreased baseline locomotion
- effect on amphetamine-induced hyperactivity (C57BL/6J mice [6]; 3 mg/kg IP): reduced amphetamine-induced hyperactivity
- Emax ([3]; read-out: β-arrestin-2 Emax): 97 ± 2.1%

SMILES: CNc1nc(Cc2ccccc2)cc2c1CCNCC2 [PF-04781340]
- selectivity over 5-HT2B (5-HT2B [7]): about 160 fold
- 5-HT2C Emax (5-HT2C [8]): 99%
- EC50 (5-HT2C [8]; read-out: 5-HT2C EC50): 9 nM

SMILES: CNC[C@H]1C[C@@H]1c1cc(F)ccc1OC.Cl [(+)-15a, (+)-1-[(1S,2S)-2-(5-Fluoro-2-methoxyphenyl)cyclopropyl]-N-methylmethanamine Hydrochloride]
- Ki (5-HT2C [9]): 81 nM
- β-arrestin recruitment activity [3]: no β-arrestin recruitment activity

SMILES: COc1cc(CC(C)N)c(OC)cc1I (stereo not shown) [DOI]
- effect on the locomotor effects of PCP [10]: potentiate the locomotor effects of PCP

SMILES: COc1ccc(F)cc1C1CC1CNCc1ccccc1O.Cl (racemic) [(±)-22, 2-[[[[2-(5-Fluoro-2-methoxyphenyl)cyclopropyl]methyl]amino]methyl]phenol Hydrochloride]
- selectivity for 5-HT2C over 5-HT2B (5-HT2B [2]): full selectivity

SMILES: COc1ccc(F)cc1[C@@H]1C[C@H]1CNCc1ccccc1Cl [(−)-27, (–)-N-(2-Chlorobenzyl)-1-[(1R,2R)-2-(5-fluoro-2-methoxyphenyl)cyclopropyl]methanamine Hydrochloride]
- Emax (5-HT2A [11]): 84 ± 3.9%

SMILES: COc1ccccc1CNC[C@H]1C[C@@H]1c1cc(F)ccc1OC.Cl [(+)-19, (+)-1-[(1S,2S)-2-(5-Fluoro-2-methoxyphenyl)cyclopropyl]-N-(2-methoxybenzyl)methanamine Hydrochloride]
- effect on PCP-induced hyperactivity (C57BL/6J mice [4]; 10 mg/kg IP): increased locomotion
- effect on PCP-induced hyperactivity (C57BL/6J mice [4]; 20 mg/kg IP): had no effect on PCP-induced hyperlocomotion
- inhibition at 10 µM (CYP2D6): > 50%
- baseline locomotion (C57BL/6J mice [5]; 10 mg/kg IP): had no effect
- baseline locomotion (C57BL/6J mice [5]; 20 mg/kg IP): had no effect
- effect on amphetamine-induced hyperactivity (C57BL/6J mice [6]; 10 mg/kg IP): no significant effect
- effect on amphetamine-induced hyperactivity (C57BL/6J mice [6]; 20 mg/kg IP): decreased the hyperlocomotion
- off-target affinity [12]: None of the other screened targets were found to display any significant off-target affinity
- inhibition at 10 µM (CYP3A4): > 50%

SMILES: CNc1nc(Cc2ccccc2)nc2c1CCNC[C@@H]2C [PF-4479745]
- agonism at 5-HT2A (5-HT2A [13]): no measurable agonism
- agonism at 5-HT2B (5-HT2B [7]): no measurable agonism
